One data set deals with T1, MKK6 (Homo sapiens, UniProt P52564).
T1 construct: purchased Millipore (KinaseProfiler service)
T1 sequence (P52564 1-334): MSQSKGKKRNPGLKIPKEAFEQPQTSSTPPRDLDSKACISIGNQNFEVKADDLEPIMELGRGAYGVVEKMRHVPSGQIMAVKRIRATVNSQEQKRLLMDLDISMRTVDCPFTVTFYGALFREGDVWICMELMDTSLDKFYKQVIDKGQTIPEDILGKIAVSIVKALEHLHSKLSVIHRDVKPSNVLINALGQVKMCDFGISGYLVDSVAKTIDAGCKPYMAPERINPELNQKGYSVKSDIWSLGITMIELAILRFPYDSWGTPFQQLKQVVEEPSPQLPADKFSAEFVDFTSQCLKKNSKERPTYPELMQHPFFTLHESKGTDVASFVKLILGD
As to the kind of experiment: MKK6 radiometric kinase assay. The following applies: MMI-0100 100 μM; remaining kinase activity. In kind it is biochemical. The text has this: (§1) A commercial radiometric assay service was used to test the specificity and potency of MMI-0100 ([…]; SEQ ID NO: 1) by measuring its half maximal inhibitory concentrations (IC50). This quantitative assay measures how much MK2 inhibitor (MMI-0100; […] (SEQ ID NO: 1)) is needed to inhibit 50% of a given biological process or component of a process (i.e., an enzyme, cell, or cell receptor). Specifically, in these assays, a positively charged substrate is phosphorylated with a radiolabeled phosphate group from an ATP if the kinase is not inhibited by an inhibitor peptide. The positively charged substrate then is attracted to a negatively charged filter membrane, quantified with a scintillation counter, and compared to a 100% activity control. ATP concentrations within 15 μM of the apparent Km for ATP were chosen since an ATP concentration near the Km may allow for the kinases to have the same relative amount of phosphorylation activity. The individual conditions for each radiometric assay are as follows.
The reaction was initiated by adding the MgATP. After incubation for 40 minutes at room temperature, 5 μl of the incubation mix was used to initiate the p38MAPK radiometric assay described above.
IC50 values for inhibitor peptides were determined using Millipore's IC50 Profiler Express service. The IC50 value was estimated from a 10-point curve of one-half log dilutions. […]

Another data set concerns the target T2, MEK1 (Homo sapiens, UniProt Q02750).
T2 construct: purchased Millipore (KinaseProfiler service)
As to the kind of experiment: MEK1 radiometric kinase assay. In kind it is biochemical. To be noted: MMI-0100 100 μM; remaining kinase activity.
Text: as §1
The reaction was initiated by adding the MgATP. After incubation for 40 minutes at room temperature, 5 μl of this incubation mix was used to initiate the MAPK2 radiometric assay whose reaction condition was the same as the condition for p38 MAPK assay described above.
IC50 values for inhibitor peptides were determined using Millipore's IC50 Profiler Express service. […]

Data set [1] relates to immortalized human pleural mesothelial cells (ATCC CRL-9444). As to the kind of experiment: TNF-α-induced IL-6 expression in mesothelial cells (ELISA). Type of data set: cell-based. From the text: In order to examine the efficacy of MMI-0100 ([…]; SEQ ID NO: 1) in inhibiting the production of inflammatory cytokines, an inflammatory response was triggered in vitro by applying TNF-α to immortalized human pleural mesothelial cells (ATCC CRL-9444). A mesothelial cell is a cell type that forms a monolayer of specialized pavement-like cells (mesothelium) that lines the body's abdominal cavities and internal organs. The primary function of this layer, the mesothelium, is to provide a slippery, non-adhesive, and protective surface. Mesothelial cells also are involved in transport of fluid and cells across the peritoneal (abdominal) cavities, antigen presentation, inflammation, tissue repair, coagulation, and tumor cell adhesion. It is well known that mesothelial cells play important role in the peritoneal inflammatory response. In response to bacterial products and macrophage-derived inflammatory cytokines (e.g., TNF-α), mesothelial cells produce Interleukin-1 (IL-1), Interleukin-6 (IL-6), and Interleukin-8 (IL-8), thus amplifying the inflammatory signals and recruiting leukocytes into the infected abdominal cavity.
Expression of inflammatory cytokines was induced by applying 1 or 10 ng/ml of TNF-α to cultured mesothelial cells. Briefly, immortalized human pleural mesothelial cells (ATCC CRL-9444) were grown in Medium199 with Earle's BSS, 0.75 mM L-glutamine (Mediatech Inc., Manassas, Va.), 1.25 g/l sodium bicarbonate (Sigma), 3.3 nM epidermal growth factor (EGF) (MBL International, Woburn, Mass.), 40 nM hydrocortisone (Sigma), 870 nM insulin (MBL International), 20 mM HEPES (Sigma), trace elements mixture B (Mediatech Inc., Waltham, Mass.), 10% fetal bovine serum (FBS) (Hyclone), and 1% penicillin/streptomycin (Mediatech Inc., Waltham, Mass.). […] Human mesothelial cells were treated with two different concentrations (1 and 10 ng/mL) of TNF-α for 2, 6, 12, and 24 hours (data not shown). […] Without TNF-α stimulation, mesothelial cells made negligible amounts of IL-6. […] In subsequent experiments designed to determine whether the MMI-0100 peptide ([…]; SEQ ID NO: 1) could reduce TNF-α induced IL-6 expression, both 1 and 10 ng/mL of TNF-α were selected as stimuli. 10 ng/mL of TNF-α is regarded as more physiologically relevant for mesothelial cells.
Prior to cytokine and/or inhibitor treatment, cells were allowed to acclimate in serum-free media consisting of only Medium 199 with Earle's BSS, 0.75 mM L-glutamine, 1.25 g/l sodium bicarbonate, 20 mM HEPES, trace elements mixture B (Mediatech Inc., Waltham, Mass.), and 1% penicillin/streptomycin (Mediatech Inc., Waltham, Mass.) for 24 hours. After the adapting period, cytokines (TNF-α and IL-1β) with or without MMI-0100 peptide or Rottlerin (Tocris Bioscience, Ellisville, Mo.; IC50=5 μM) were added to the media in order to compare the efficacy of MMI-0100 ([…]; SEQ ID NO: 1) with that of Rottlerin. Specifically, serum-starved mesothelial cells were treated with two different concentrations (1000 μM or 3000 μM) of MMI-0100 ([…] (SEQ ID NO: 1)) at three different time points (6 hours, 12 hours, and 24 hours) using two different concentrations of TNF-α (1 ng/ml or 10 ng/ml) or using 1 ng/ml of IL-1β. Average concentration of IL-6 (pg/ml per 10^5 cells) at each time was determined by cytokine-specific ELISA.
In general terms: In an ELISA, binding on a coated surface is turned into a signal by an enzyme label.

The subject of data set [2] is mouse lung endothelial cells (MLEC). As to the kind of experiment: Cell apoptosis analysis (annexin V flow cytometry). Type of data set: cell-based. To be noted: any dose; 24 hours. As to the method:
The apoptotic effect of MMI-0100 ([…]; SEQ ID NO: 1) on mouse lung endothelial cells (MLEC) was measured at 24 hours after MMI-0100 ([…]; SEQ ID NO: 1) treatment. MLEC were removed from the tissue culture plate by trypsin, and re-suspended at a concentration of 1.0×10^6 cells/ml. Apoptotic cells were detected by AlexaFluor® 488 annexin V/Dead Cell Apoptosis Kit (Invitrogen) using flow cytometry sorting analysis.
On the technique in general: In flow cytometry, cells or beads pass a laser one at a time.

For the sequence YARAAARQARAKALARQLGVAA [MMI-0100], on MKK6, the “Percent Activity, MKK6” value is given as 50%. For the same sequence, the “Percent Activity, MEK1” value on MEK1 came out at 68%. The IL-6 expression result in data set [1] (1 ng/mL TNF-α, MMI-0100 1000 μM or 3000 μM) is on record as “reduced IL-6 expression to the levels at or below the untreated baseline”; in data set [1] (10 ng/mL TNF-α, 3000 μM MMI-0100, every time point (6, 12, 24 hours)) it was “reduced IL-6 expression to the levels of the untreated baseline”; in data set [1] (10 ng/mL TNF-α, MMI-0100), “still effective”. In addition, in data set [2], the EC apoptosis entry is “did not induce EC apoptosis”.

The values above are taken from patent US20130115256A1, “METHODS FOR TREATING OR PREVENTING VASCULAR GRAFT FAILURE” (priority 2010, published 2013).
